Measured values published in PMC12118597 (Science Advances, 2025).
Where “and” joins values, the source holds several entries; their conditions need not be identical. Identical values can stand only once. Like-named read-outs stand apart in the source and are kept apart here.

Molecular target: SARS-CoV-2 NSP3 macrodomain (Mac1) (Severe acute respiratory syndrome coronavirus 2, UniProt P0DTD1)
Format: binding
[1] = DMSO background map; event 1; soak concentration 10 mM
[2] = DMSO background map; soak concentration 10 mM
[3] = PanDDA background density correction factor
[4] = TRUE = ligand-bound crystal structure obtained (PDB code given)
[5] = crystal soak concentration 20 mM, DMSO background map
[6] = crystal soak concentration 20 mM, DMSO background map, event 1
[7] = crystal soak concentration 20 mM, P43 crystals
[8] = crystal soak, P43 crystals; soak concentration 10 mM
[9] = crystal soak, P43 crystals; soak concentration 10 mM for the hits shown
[10] = ligand conformations modeled in the crystal structure
[11] = refined crystallographic occupancy
[12] = site of Mac1 occupied in the X-ray crystal structure (Adenosine or Distal)
[13] = PanDDA background density correction, 1-BDC
[14] = soak concentration 10 mM, DMSO background map
[15] = soak concentration 10 mM, P43 crystals
[16] = soak concentration 3 mM, DMSO background map
[17] = soak concentration 3 mM, P43 crystals

| SMILES | Occupancy difference (refined_occupancy - 2*(1-BDC)) | PanDDA run, DMSO background map: 1-BDC [1] | PanDDA run, DMSO background map: Hit [2] | PanDDA run, DMSO background map: Modeled [2] | 1-BDC [3] | X-ray crystal structure [4] | Hit (PanDDA run, DMSO background map) [5] | 1-BDC (PanDDA run, DMSO background map) [6] | Hit (PanDDA run, overall) [7] | Modeling comment (PanDDA run, overall) [7] | PanDDA run, overall: Modeled [8] | PanDDA run, overall: Hit [9] | Total number of conformations [10] | 2*(1-BDC) (%) (occupancy estimate from PanDDA) | Refined ligand occupancy (%) [11] [%] | Binding site [12] | PanDDA run, DMSO background map: 1-BDC [14] | PanDDA run, DMSO background map: Hit [14] | PanDDA run, overall: Hit [15] | also measured |
| --- | --- | --- | --- | --- | --- | --- | --- | --- | --- | --- | --- | --- | --- | --- | --- | --- | --- | --- | --- | --- |
| O=C(O)C1CCCN1S(=O)(=O)c1cccc2nsnc12 (stereo not shown) [AVI-2] | 10 | 0.2 | TRUE | TRUE | 0.2 | TRUE | TRUE | 0.22 | TRUE | Duplicate, not modeled | TRUE | TRUE | 1 | 40 | 50 | Adenosine |  |  |  |  |
| c1ccc(-n2nnnc2CSc2nnc(NC3CC3)s2)cc1 [AVI-286] | 0 | 0.11 | TRUE | TRUE | 0.11 | TRUE |  |  |  |  | TRUE | TRUE | 1 | 22 | 22 | Distal |  |  |  |  |
| O=C(O)C(c1ccccc1)n1sc2ccccc2c1=O (stereo not shown) [AVI-288] |  | 0.26 | TRUE |  |  | TRUE | TRUE | 0.37 | TRUE |  |  | TRUE |  | 74 |  | Adenosine |  |  |  | 1-BDC [13]: 0.37; Modeled (PanDDA run, DMSO background map) [5]: TRUE; Modeled (PanDDA run, overall) [7]: TRUE; PanDDA run, overall: Modeling comment [8]: Duplicate, not modeled; Refined ligand occupancy (%) (crystallographic refinement): 74% |
| CC(C)n1nnnc1SCc1c(C(=O)O)sc2cccc(F)c12 [AVI-291] |  | 0.25 | TRUE |  |  | TRUE | TRUE | 0.34 | TRUE | Second ligand conformation, not modeled, DMSO x2 |  | TRUE |  | 68 |  | Adenosine |  |  |  | 1-BDC [13]: 0.34; Modeled (PanDDA run, DMSO background map) [5]: TRUE; Modeled (PanDDA run, overall) [7]: TRUE; PanDDA run, overall: Modeling comment [8]: Duplicate, not modeled; Refined ligand occupancy (%) (crystallographic refinement): 68% |
| Nc1nnc(SCCn2c(=O)oc3ccccc32)s1 [AVI-296] | 0 | 0.06 | TRUE | TRUE | 0.06 | TRUE |  |  |  |  | TRUE | TRUE | 1 | 12 | 12 | Distal |  |  |  |  |
| CCn1c(C)nnc1Sc1cnc2ccccc2n1 [AVI-297] |  | 0.05 | TRUE |  |  |  |  |  |  |  |  | TRUE |  |  |  |  |  |  |  | PanDDA run, overall: Modeling comment [8]: Only density for quinoxaline, not modeled |
| CC1CC(C(=O)O)CCN1C(=O)c1ccc2c(c1)OCC(=O)N2 (stereo not shown) [AVI-303] | 0 | 0.13 | TRUE | TRUE | 0.13 | TRUE | TRUE | 0.19 | TRUE | Duplicate, not modeled | TRUE | TRUE | 1 | 26 | 26 | Adenosine |  |  |  |  |
| COc1ccc(NC(=O)NC2CCCC2)cc1-n1nnnc1C [AVI-311] |  |  |  |  |  |  | TRUE | 0.12 | TRUE | Weak density, not modeled |  |  |  |  |  |  | 0.09 | TRUE | TRUE | PanDDA run, overall: Modeling comment [15]: Weak density, not modeled |
| O=C(Nc1ccsc1C(=O)O)c1ccc2c(c1)OCO2 [AVI-316] | 0 |  |  |  | 0.07 | TRUE | TRUE | 0.12 | TRUE | Duplicate, not modeled |  |  | 1 | 14 | 14 | Adenosine | 0.07 | TRUE | TRUE | PanDDA run, DMSO background map: Modeled [14]: TRUE; PanDDA run, overall: Modeled [15]: TRUE |
| Cc1sc2ncnc(Sc3ccccc3C(=O)O)c2c1C [AVI-317] | 30 |  |  |  | 0.15 | TRUE |  |  |  |  |  |  | 2 | 30 | 60 | Adenosine | 0.17 and 0.15 | TRUE | TRUE | PanDDA run, DMSO background map: Modeled [14]: TRUE; PanDDA run, overall: Modeled [15]: TRUE; PanDDA run, overall: Modeling comment [15]: Duplicate, not modeled |
| Cc1c(C)n(Cc2ccccc2)c2ncnc(N)c12 [AVI-321] | 0 |  |  |  | 0.08 | TRUE |  |  |  |  |  |  | 1 | 16 | 16 | Adenosine |  |  |  | PanDDA run, DMSO background map: 1-BDC [16]: 0.08; PanDDA run, DMSO background map: Hit [16]: TRUE; PanDDA run, DMSO background map: Modeled [16]: TRUE; PanDDA run, overall: Hit [17]: TRUE; PanDDA run, overall: Modeled [17]: TRUE |
| Cc1cc2c(=O)n(CCN3C(=O)c4ccccc4S3(=O)=O)nnc2s1 [AVI-341] | 14 |  |  |  | 0.18 | TRUE | TRUE | 0.19 | TRUE | Duplicate, not modeled |  |  | 1 | 36 | 50 | Adenosine | 0.18 | TRUE | TRUE | PanDDA run, DMSO background map: Modeled [14]: TRUE; PanDDA run, overall: Modeled [15]: TRUE |
